Data reported in patent publication US10150793B2, “Antagonists of CB1 receptor” (INSERM (Institut National de la Santé et de la Recherche …, priority 2011, dated 2018).
“Also recorded” adds a separate entry of the source.

Assays:
[1] = system: CHO cells; experiment: Study of metabolism in vitro in CHO cells, steroids in culture medium by GC/MS; conditions: CHO cells
Experimental: (§1) Plasma, brain and culture medium levels of pregnenolone (5-Pregnen-3β-ol-20-one), allopregnanolone (3α-hydroxy-5α-pregnan-20-one), epiallopregnanolone (3β-hydroxy-5α-pregnan-ol-20-one), testosterone, and 5α dihydrotestosterone were determined by GC/MS according to the of estraction, purification and quantification protocol described previously (George O, et al., Biol Psychiatry. 2010 68: 956-63, Vallee M, et al., Anal Biochem. 2000, 287:153-66).
The CHO-K1 cell line (#CCL-61, ATCC-LGC, USA) derived as a subclone from the parental CHO cell line initiated from a biopsy of an adult Chinese hamster ovary was used. The CHO-K1 cells were seeded on 24-well plates (#353047, BD Biosciences, USA) to the appropriate concentration (25×10^4 cells/well) in fresh, antibiotic-free medium constituted by 90% DMEM-Glutamax; (#31966-21, Life technologies, USA) and 10% Fetal Bovine Serum (#10270-106, Life technologies, USA).
In this example the inventors further analyzed the metabolism of pregnenolone derivatives using an in vitro test in CHO cells. These cells derived from the ovary have all the enzymes needed to metabolize pregnenolone in down stream steroids.

[2] = system: TNF-α; experiment: Increase in plasma TNF-alpha induced by LPS; type: in vivo, mice; conditions: Mus musculus; mice; compounds 6 mg/kg 15 min before LPS
Experimental: Trunk blood was collected and centrifuged at 3000 rpm for 15 min at 4° C. Plasma was stored at −80° C. until measurement of TNFα was carried out. Plasma TNFα levels were assessed using an ELISA kit, following the manufacturer's instructions (Fisher Scientific, Catalog #E6473C).
In this example the inventors further analyzed the ability of pregnenolone to inhibit the effects of CB1 activation in the context of inflammation and fibrosis. […] TNF-alpha is one of the cellular responses to inflammatory stimuli more involved in promoting fibrosis.
(§2) Other pregnenolone derivatives (Table 4) for which the metabolism in downstream active steroids was reduced were tested for their ability to inhibit: 1. effects of the THC-induced cannabinoid tetrade (decrease in body temperature and in locomotor activity, (THC 10 mg/kg, compounds 6 mg/kg 15-30 min before THC) that is recognized as a sound method to evaluate the activation of the CB1 receptor; 2. THC-induced increase in food intake a typical effect of CB1 activation (THC between 0.5 and 1 mg/kg, compounds between 2 and 4 mg/kg 30 min before THC); 3. the increase in TNFalpha induced by LPS, another effects typical of CB1 […] (compounds 6 mg/kg 15 min before LPS). For each compound and each test independent groups of animals were used (at least n=6 per compound/per test).

[3] = Allopregnanolone and epiallopregnanolone in nucleus accumbens after high dose injection (GC/MS); type: in vivo, Wistar rats; conditions: 50 mg/kg; 30 min after the injections
Experimental: The capacity of a compound of the invention to be or not to be converted into active pregnenolone downstream derivatives may be evaluated by administering this compound, for example by injecting 50 mg/kg, to a rat, sacrificing the rat 30 min later, measuring the concentration of allopregnanolone and epiallopregnanolone in nucleus accumbens of rat by GC/MS and comparing these concentrations to allopregnanolone and epiallopregnanolone in a rat whose has been injected only a vehicle or pregnenolone.
The concentrations of allopregnanolone and epiallopregnanolone were measured in nucleus accumbens of individual animal by GC/MS 30 min after the injections.

[4] = biological target: T1, CB1 receptor (Mus musculus, UniProt P47746); experiment: THC-induced increase in food intake in mice; type: in vivo; design: tissue Charles River Laboratories (France) (animals); host or cells: living mice, whole animal; conditions: for effect on THC-induced increase in food intake (hyperphagia) in mice: 24 h-food deprived C57B1/6 mice, THC 1 mg/kg, compound 2 mg/kg sc; for % Inhibition of THC-Induced food intake: mice, THC between 0.5 and 1 mg/kg, compounds between 2 and 4 mg/kg 30 min before THC
T1 sequence (P47746 whole entry): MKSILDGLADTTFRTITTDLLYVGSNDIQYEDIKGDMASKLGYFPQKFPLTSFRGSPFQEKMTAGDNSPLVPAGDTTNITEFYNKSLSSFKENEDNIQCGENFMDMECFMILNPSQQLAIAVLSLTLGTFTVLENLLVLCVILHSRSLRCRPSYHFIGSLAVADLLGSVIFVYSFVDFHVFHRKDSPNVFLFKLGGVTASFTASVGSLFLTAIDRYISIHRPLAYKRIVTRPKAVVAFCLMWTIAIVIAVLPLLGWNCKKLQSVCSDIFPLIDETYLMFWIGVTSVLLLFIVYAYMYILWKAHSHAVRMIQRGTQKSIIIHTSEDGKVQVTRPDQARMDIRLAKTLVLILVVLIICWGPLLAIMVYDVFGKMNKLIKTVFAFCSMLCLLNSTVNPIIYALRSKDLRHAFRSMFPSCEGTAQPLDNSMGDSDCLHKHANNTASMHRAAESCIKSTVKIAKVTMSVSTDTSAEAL
Experimental: (§3) Food intake was evaluated by measuring consumption of food in the home cages of the animals. For each animal, 50-100 g of standard laboratory chow (U.A.R., France) was placed in the cleaned home cage. The remaining amount of food was weighted 1 h later and the amount of food consumed calculated.
as §2

[5] = biological target: T1, CB1 receptor; experiment: Food intake in 24 h-food deprived mice (fasting/refeeding); type: in vivo, C57B1/6 mice; design: tissue Charles River Laboratories (France) (animals); host or cells: living mice, whole animal; conditions: no THC; for first statistically significant dose for decrease of food intake: food-deprived (food-restricted) mice; for effect on food intake in 24 h-food deprived mice: food intake over 1 h
[6] = biological target: T2, CB1 receptor (Rattus norvegicus, UniProt P20272); experiment: THC-induced increase in food intake in ad libitum fed Wistar rats; type: in vivo; design: tissue Charles River Laboratories (France) (animals); host or cells: living Wistar rats, whole animal; conditions: THC 0.5 mg/kg; 17-methylpregnenolone 8 mg/kg sc
T2 sequence (P20272 whole entry): as the sequence (P47746 whole entry) above, with D95E counted along it
Experimental: as §3

[7] = biological target: T1, CB1 receptor; experiment: THC-induced cannabinoid tetrad (body temperature, locomotor activity, catalepsy, analgesia); type: in vivo, mice; design: tissue Charles River Laboratories (France) (animals); host or cells: living mice, whole animal; conditions: mice; THC 10 mg/kg; compounds 6 mg/kg 15-30 min before THC
[8] = biological target: T2, CB1 receptor; experiment: Pregnenolone concentrations in the brain after drugs of abuse and CB1 ligands (GC/MS); type: in vivo, Wistar rats; design: tissue Charles River Laboratories (France) (animals); host or cells: living Wistar rats, whole animal; conditions: for effect of CB1/CB2 agonists on pregnenolone concentrations: rats, n=6-12 per group
Experimental: as §1
In this example the inventors analyzed the effects of the injection of the principal drugs of abuse on the production of pregnenolone in male Wistar rats. […] For example, in the brain, starting from pregnenolone two parallel enzymatic cascades allow producing on one hand allopregnanolone and its stereoisomer epiallopregnanolone and on the other testosterone and its metabolite DHT. These brain steroids were quantified using GC-MS, the only technique able to differentiate their subtle structural differences. […] Concentrations of neurosteroids were analyzed 15, 30 and 120 min after the injection in several ascending brain structure, the ventral midbrain the hypothalamus, the striatal complex and the frontal cortex.
The example provides data obtained in the plasma and in several brain structures: frontal cortex (FCX); nucleus accumbens (ACC); striatum (STR); hypothalamus (HYP).
The effects of THC in the brain are mediated by a family of G-protein-coupled seven membrane receptors (GCPR) and principally by the CB1 and CB2 receptors.

[9] = biological target: T1, CB1 receptor; experiment: THC inhibition of fEPSP in nucleus accumbens slices; type: cell-based, mice; design: from tissue; host or cells: acute brain slices, nucleus accumbens; conditions: control slices
Experimental: Animals were deeply anesthetized with Isoflourane and transcardially perfused with a sucrose-based physiological solution at 4° C. (in mM: 23 NaHCO3, 70 Choline Cl, 75 Sucrose, 25 Glucose, 2.5 KCl, 1.25 NaH2PO4, 7 MgCl2 and 0.5 CaCl2). The brain was removed and sliced (250-300 μm) in the coronal plane using a vibratome (Campden Instruments, Loughborough, UK). During the slicing process, the brain was maintained in the sucrose-based solution. Immediately after cutting, slices were stored at 32° C. for 40 minutes in a low-calcium artificial cerebrospinal fluid (low-Ca^2+ ACSF) that contained (in mM): 23 NaHCO3, 120 NaCl, 11 Glucose, 2.5 KCl, 1.2 NaH2PO4, 2.4 MgCl2, 1.2 CaCl2. Slices were then stored in low-Ca^2+ ACSF at room temperature until recording.
For fEPSPs, extracellular glass recording and stimulating electrodes were filled with ACSF. Synaptic potentials were evoked by means of two electric stimuli (0.1-0.25 mA, 200 μsec duration) delivered at 20 Hz every 10 seconds. Stimulating electrode was placed at a distance>150 μm in the dorsomedial direction from the recoding electrode.
In order to test the effect of pregnenolone on a wider range of THC concentrations, we recorded fEPSP in NAc slices. Due to the possibility to achieved stable fEPSP measurements for several hours, this technique is ideally suited to perform dose-response curves and has previously been used to address CB1 receptor function (Robbe et al., 2001; Mato et al., 2004). Thus, AMPAR-mediated evoked fEPSP were recorded by electrically stimulating local axons.

[10] = biological target: T2, CB1 receptor; experiment: THC inhibition of AMPAR-mediated EPSC, patch clamp in nucleus accumbens slices; type: cell-based, rats; design: from tissue; host or cells: acute coronal brain slices, nucleus accumbens; conditions: control slices
[11] = Elevated plus maze, anxiety-like behaviors; type: in vivo, mice; conditions: sc, 30 min before test; pregnenolone 1, 6, 10 mg/kg; rimonabant 10 mg/kg
Experimental: The elevated plus maze was made by a central platform (10×10 cm) from which departed 4 arms (45×10 cm) at a 90° angle from each other. Two opposite arms, named closed arms had peripheral wall 50 cm high. The two other arms, named open arms had no walls. The maze was suspended at 66 cm from the floor of the room and was brightly lighted (120 lux). The testing consisted in placing the animal in the central platform and the number of entry and the time spent in each compartment of the maze recorded for 5 min. The number of entry and time spent in the open arms are considered and index of anxiety-like behaviors, whilst the total number of entry are and index of locomotor activity.
One of the major side effects of orthosteric antagonists of the CB1 is the induction of behavioral side effect and in particular an axiodepressive state. […] This test has been chosen because an increase in anxiety was the principal undesirable side effect of this compound in humans.

SMILES	metabolism in downstream active steroids (Reduced metabolism / Metabolized) [1]	production of allopregnanolone and epiallopregnanolone in nucleus accumbens [3]	effect on THC-induced increase in food intake (hyperphagia) in mice [4]	% Inhibition of THC-Induced food intake [4]	first statistically significant dose for decrease of food intake [5]	effect on food intake in 24 h-food deprived mice [5]	effect on increase in food intake induced by THC in ad libitum fed Wistar rats [6]	further results
CC(=O)C1CCC2C3CC=C4C[C@@H](F)CC[C@]4(C)C3CC[C@]12C (stereo partly drawn) [Compound 1, 3β-Fluoropregnenolone]	Reduced metabolism	None of the modified pregnenolone derivatives	decreased THC-induced hyperphagia	≥100%, P < 0.01	6 mg/kg	dose-dependently decreased food intake	non statistically significant trend to decrease	inhibition in vivo at 6 mg/kg [2]: 58%
CC(=O)[C@@]1(C)CCC2C3CC=C4C[C@@H](O)CC[C@]4(C)C3CC[C@@]21C (stereo partly drawn) [Compound 2, 17α-Methylpregnenolone]	Reduced metabolism	None of the modified pregnenolone derivatives	decreased THC-induced hyperphagia	≥100%, P < 0.001	4 mg/kg	dose-dependently decreased food intake	significantly reduced; also recorded: decrease significantly the increase in food intake induced by THC in rats	inhibition in vivo at 6 mg/kg [2]: 60%; % Inhibition temperature decrease [7]: 43%, P < 0.001; % increase in motor activity [7]: 240%, P < 0.01; dose inhibiting THC-induced increase in food-intake (first effective dose) ([4]; dose response in 24 h-food deprived mice, 0.5 mg/kg dose was ineffective): 1 mg/kg
CC(=O)[C@@]1(C)CCC2C3CC=C4C[C@@H](F)CC[C@]4(C)C3CC[C@@]21C (stereo partly drawn) [Compound 3, 3β-Fluoro-17α-methylpregnenolone]	Reduced metabolism	None of the modified pregnenolone derivatives	decreased THC-induced hyperphagia	≥100%, P < 0.01	6 mg/kg	dose-dependently decreased food intake	non statistically significant trend to decrease	–
CCCCCCC(C)(C)c1cc(O)c2c(c1)OC(C)(C)[C@@H]1CC=C(CO)C[C@@H]21 [HU210]	–	–	–	–	–	–	–	effect of CB1/CB2 agonists on pregnenolone concentrations [8]: induced a significant increase in pregnenolone
CCCC(C)(C)c1ccc2c(c1)OC(C)(C)[C@@H]1CC=C(C)C[C@@H]21 [JWH, 133]	–	–	–	–	–	–	–	effect of CB1/CB2 agonists on pregnenolone concentrations [8]: much lower and not significant effects
CCCCCc1cc(O)c2c(c1)OC(C)(C)[C@@H]1CCC(C)=C[C@@H]21 [THC, Δ9-tetrahydrocannbinol, reference compound]	–	–	–	–	–	–	–	inhibition at 10 µM ([9]; THC 10 μM): 23.9 ± 6%; inhibition at 20 µM ([9]; THC 20 μM): 35.3 ± 4.7%; inhibition at 40 µM ([9]; THC 40 μM): 48.6 ± 3.6%; inhibition of EPSC amplitude by THC [10]: 34.3±3.7 % of inhibition; increase in brain concentrations of pregnenolone ([8]; nucleus accumbens, between 15 and 30 min after the injection, THC 3 mg/kg): around 1500%; ED50 ([8]; rat, 30 min after the injection, THC 0.3-9 mg/kg, read-out: ED50 of the increase in pregnenolone in the brain): ~3 mg/kg
Cc1c(C(=O)NN2CCCCC2)nn(-c2ccc(Cl)cc2Cl)c1-c1ccc(Cl)cc1 [rimonabant, reference compound]	–	–	–	–	–	–	–	anxiety-like behavior (entries and time spent in open arms) [11]: anxiogenic effects
